Results on 54 molecules are retold here after PubChem BioAssay AID1117285 (Broad Institute, 2014).

Records with an inconclusive call do not appear. Activity calls are given as the source filed them.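 The calls were made as follows: active = called active in every replicate test, with a falling signal and AC50 within twice the top valid dose; inconclusive = replicate tests disagree in their calls; inactive = inactive in every replicate test, including a rising signal.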

In the experiment the target is Leucyl-cystinyl aminopeptidase (Mus musculus) (UniProt Q8C129). As to the kind of experiment: IRAP inhibitors, dose response, selectivity assay for ERAP1 modulator project, biochemical, dry powder samples, set 2 (AID 1117285). As to conditions: purified IRAP, Leu-AMC hydrolysis fluorescence, 1 h.
Leucyl-cystinyl aminopeptidase (Mus musculus), sequence (Q8C129 whole entry, looked up): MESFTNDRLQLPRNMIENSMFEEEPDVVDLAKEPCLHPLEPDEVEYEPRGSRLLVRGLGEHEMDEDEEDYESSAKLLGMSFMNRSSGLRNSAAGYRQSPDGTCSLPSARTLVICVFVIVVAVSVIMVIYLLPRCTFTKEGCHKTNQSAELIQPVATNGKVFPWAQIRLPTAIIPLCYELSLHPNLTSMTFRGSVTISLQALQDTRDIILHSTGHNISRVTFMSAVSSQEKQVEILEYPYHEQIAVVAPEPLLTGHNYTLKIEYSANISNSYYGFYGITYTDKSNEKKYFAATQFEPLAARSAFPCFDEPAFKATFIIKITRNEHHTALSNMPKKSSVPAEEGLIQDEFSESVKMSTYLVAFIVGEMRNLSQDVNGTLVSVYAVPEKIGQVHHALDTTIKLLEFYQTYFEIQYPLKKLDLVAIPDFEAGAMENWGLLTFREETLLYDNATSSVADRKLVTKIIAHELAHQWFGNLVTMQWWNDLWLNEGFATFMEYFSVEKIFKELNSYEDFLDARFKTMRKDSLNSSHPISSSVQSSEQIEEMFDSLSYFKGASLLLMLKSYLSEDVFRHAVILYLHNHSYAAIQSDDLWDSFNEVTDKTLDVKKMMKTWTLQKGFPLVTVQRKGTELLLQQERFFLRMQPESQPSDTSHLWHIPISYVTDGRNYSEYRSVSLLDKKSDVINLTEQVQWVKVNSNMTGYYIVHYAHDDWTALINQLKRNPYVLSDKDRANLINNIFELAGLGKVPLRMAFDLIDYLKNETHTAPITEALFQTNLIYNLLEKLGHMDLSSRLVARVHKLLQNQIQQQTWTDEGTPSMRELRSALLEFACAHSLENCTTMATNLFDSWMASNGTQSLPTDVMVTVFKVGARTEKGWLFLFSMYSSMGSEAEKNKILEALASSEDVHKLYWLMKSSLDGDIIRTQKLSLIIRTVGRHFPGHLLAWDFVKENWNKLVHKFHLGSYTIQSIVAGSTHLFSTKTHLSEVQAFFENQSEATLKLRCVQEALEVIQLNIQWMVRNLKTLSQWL

For the molecule `COc1ccc(C(=O)O)cc1S(=O)(=O)Nc1cc(C(F)(F)F)ccc1N1CCCCC1`, the “max activity % (lower = more inhibition)” value is “inactive”. In the case of `COc1ccc(C(=O)Nc2cccc(C(F)(F)F)c2)cc1S(=O)(=O)O`, under “at 50 µM”, the “max activity % (lower = more inhibition)” value was “inactive”. Turning to `COc1ccc(C(=O)O)cc1S(=O)(=O)Nc1cc(C(F)(F)F)ccc1N1CCOCC1`, the “max activity % (lower = more inhibition)” value was “inactive”. For `CC(=O)N1CCN(C(=O)C2(NC(=O)Nc3ccccc3)CCCC2)CC1`, where the note is “at 0.195 µM”, the “max activity % (lower = more inhibition)” value is “inactive”. As for `COc1ccc(C(=O)O)cc1S(=O)(=O)Nc1ccccc1N1CCCCC1`, the “max activity % (lower = more inhibition)” value was “inactive”. Take `COc1ccc(NC(=O)NC2(C(=O)N3CCN(C(C)=O)CC3)CCCCC2)cc1`: under “at 12 µM”, the “max activity % (lower = more inhibition)” value was “inactive”. Regarding `COc1ccc(C(=O)Nc2cc(C(F)(F)F)ccc2N2CCCC2)cc1S(=O)(=O)O`, the “max activity % (lower = more inhibition)” value (at 0.195 µM) is “inactive”.

For the molecule `Cn1cnc(S(=O)(=O)Nc2cc(C(F)(F)F)ccc2N2CCCCC2)c1`, where the note is “at 0.8 µM”, the “max activity % (lower = more inhibition)” value was “inactive”. Consider `CC(=O)N1CCN(C(=O)C2(NC(=O)Nc3ccccc3F)CCCCC2)CC1`, for which the “max activity % (lower = more inhibition)” value (at 0.8 µM) was “inactive” and the “max activity % (lower = more inhibition)” value (at 50 µM) is “inactive”. As for `O=S(=O)(Nc1cc(C(F)(F)F)ccc1N1CCCCC1)c1ccccc1`, the “max activity % (lower = more inhibition)” value (at 0.195 µM) is “inactive”. With `CC(=O)N1CCN(C(=O)C2(NC(=O)Nc3ccc(C(F)(F)F)cc3)CCCCC2)CC1`, the “max activity % (lower = more inhibition)” value (at 0.195 µM) is “inactive”. Regarding `CC(=O)N1CCN(C(=O)C2(NC(=O)NCCc3ccccc3)CCCCC2)CC1`, the “max activity % (lower = more inhibition)” value (at 50 µM) was “inactive”.

Consider `CC(=O)N1CCN(C(=O)C2(NC(=O)Nc3ccc(C(C)C)cc3)CCCCC2)CC1`, for which the “max activity % (lower = more inhibition)” value (at 0.38 µM) is “inactive”. For the molecule `O=S(=O)(Nc1cc(C(F)(F)F)ccc1N1CCCCC1)c1ccc(Cl)cc1`, the “max activity % (lower = more inhibition)” value (at 0.8 µM) was “inactive”. Consider `CC(=O)N1CCN(C(=O)C2(NC(=O)Nc3ccc(F)cc3)CCCC2)CC1`, for which the “max activity % (lower = more inhibition)” value (at 3 µM) is “inactive”. Take `CC(=O)N1CCN(C(=O)C2(NC(=O)Nc3ccc(Cl)cc3)CCCCC2)CC1`: for the setting “at 0.1 µM”, the “max activity % (lower = more inhibition)” value was “inactive”.

On to `COc1ccc(S(=O)(=O)Nc2cc(C(F)(F)F)ccc2N2CCCCC2)cc1`, for which, under “at 0.195 µM”, the “max activity % (lower = more inhibition)” value was “inactive”.

`CC(=O)N1CCN(C(=O)C2(NC(=O)Nc3cccc(C(F)(F)F)c3)CCCCC2)CC1`: for the setting “at 0.38 µM”, the “max activity % (lower = more inhibition)” value is “inactive”. On to `CC(=O)N1CCN(C(=O)C2(NC(=O)Nc3ccc(C(F)(F)F)cc3)CCCC2)CC1`, for which, for the setting “at 0.1 µM”, the “max activity % (lower = more inhibition)” value is “inactive”. Consider `CC(=O)N1CCN(C(=O)C(C)(C)NC(=O)Nc2ccc(C)cc2)CC1`, for which, for the setting “at 50 µM”, the “max activity % (lower = more inhibition)” value was “inactive”. The same measure, in the same setting: in the case of `COc1ccc(C(=O)Nc2cc(C(F)(F)F)ccc2N2CCCCC2)cc1S(=O)(=O)O` it was “inactive”. As to `COc1ccc(C(=O)O)cc1S(=O)(=O)Nc1cc(C(F)(F)F)ccc1N(C)C`, the “max activity % (lower = more inhibition)” value is “inactive”.

Usually AC50 stands for the concentration at which the activity in the assay is half-maximal. Regarding `COC(=O)[C@H](CCCCN)NC(=O)c1ccc(N)c(NC(=O)[C@@H](N)CCc2ccccc2)c1`, the AC50 is > 100 µM (inactive). Take `N#Cc1ccc(S(=O)(=O)Nc2cc(C(F)(F)F)ccc2N2CCCCC2)cc1`: for the setting “at 0.8 µM”, the “max activity % (lower = more inhibition)” value is “inactive”. With `COc1ccc(C(=O)Nc2cc(F)ccc2N2CCCCC2)cc1S(=O)(=O)O`, the “max activity % (lower = more inhibition)” value (at 50 µM) is “inactive”. For `CC(=O)N1CCN(C(=O)C2(NC(=O)NC(C)(C)C)CCCCC2)CC1`, where the note is “at 0.1 µM”, the “max activity % (lower = more inhibition)” value was “inactive”.

Regarding `Cc1ccc(NC(=O)NC2(C(=O)N3CCOCC3)CCCCC2)cc1`, for the setting “at 0.1 µM”, the “max activity % (lower = more inhibition)” value is “inactive”. Turning to `O=S(=O)(Nc1cc(C(F)(F)F)ccc1N1CCCCC1)c1ccc(F)cc1`, the “max activity % (lower = more inhibition)” value (at 0.195 µM) is “inactive”. In the case of `COC(=O)c1ccc(OC)c(S(=O)(=O)Nc2cc(C(F)(F)F)ccc2N2CCCCC2)c1`, the “max activity % (lower = more inhibition)” value is “inactive”. Consider `CC(=O)N1CCN(C(=O)C2(NC(=O)Nc3ccccc3C(F)(F)F)CCCCC2)CC1`, for which the “max activity % (lower = more inhibition)” value (at 0.195 µM) is “inactive”. On to `COc1cccc(NC(=O)NC2(C(=O)N3CCN(C(C)=O)CC3)CCCCC2)c1`, for which the “max activity % (lower = more inhibition)” value (at 12 µM) is “inactive”. Turning to `COc1ccc(C(=O)O)cc1S(=O)(=O)Nc1cc(C)ccc1N1CCCCC1`, the “max activity % (lower = more inhibition)” value was “inactive”. Consider `CC(=O)N1CCN(C(=O)C2(NC(=O)Nc3ccc(F)cc3)CCCCC2)CC1`, for which the “max activity % (lower = more inhibition)” value (at 50 µM) was “inactive”. Turning to `NC(=NCCc1c[nH]c2ccccc12)NS(=O)(=O)c1cc(F)ccc1F`, the “max activity % (lower = more inhibition)” value (at 0.195 µM) was “inactive”. As to `CC(=O)N1CCN(C(=O)CNC(=O)Nc2ccc(C)cc2)CC1`, under “at 0.1 µM”, the “max activity % (lower = more inhibition)” value is “inactive”. Take `O=S(=O)(Nc1cc(C(F)(F)F)ccc1N1CCCCC1)c1ccc(C(F)(F)F)cc1`: the “max activity % (lower = more inhibition)” value (at 3 µM) was “inactive”. As to `COc1ccc(C(=O)O)cc1S(=O)(=O)Nc1cc(F)ccc1N1CCCCC1`, the “max activity % (lower = more inhibition)” value is “inactive”. As for `O=S(=O)(Nc1cc(C(F)(F)F)ccc1N1CCCCC1)c1cc(Cl)cc(Cl)c1`, the “max activity % (lower = more inhibition)” value (at 0.38 µM) was “inactive”.

For `COc1ccc(C(=O)Nc2cc(C)ccc2N2CCCCC2)cc1S(=O)(=O)O`, the “max activity % (lower = more inhibition)” value (at 50 µM) is “inactive”. Turning to `CC(=O)N1CCN(C(=O)C2(NC(=O)Nc3ccc(C(C)C)cc3)CCCC2)CC1`, the “max activity % (lower = more inhibition)” value (at 0.195 µM) was “inactive”. As to `CC(=O)N1CCN(C(=O)[C@@H]2CCN2C(=O)Nc2ccc(C)cc2)CC1`, the AC50 is > 100 µM (inactive).

Turning to `Cc1ccccc1S(=O)(=O)Nc1cc(C(F)(F)F)ccc1N1CCCCC1`, where the note is “at 0.195 µM”, the “max activity % (lower = more inhibition)” value was “inactive”.

With `Cc1ccc(NC(=O)NC2(C(=O)N3CCN(c4ccccc4)CC3)CCCCC2)cc1`, the “max activity % (lower = more inhibition)” value (at 0.38 µM) was “inactive”. Regarding `O=[N+]([O-])c1ccc(S(=O)(=O)Nc2cc(C(F)(F)F)ccc2N2CCCCC2)c([N+](=O)[O-])c1`, the “max activity % (lower = more inhibition)” value (at 0.8 µM) was “inactive”. Turning to `O=S(=O)(Nc1cc(C(F)(F)F)ccc1N1CCCCC1)c1ccc(Br)cc1`, the “max activity % (lower = more inhibition)” value (at 3 µM) was “inactive”. For `COc1ccc(C(=O)Nc2ccccc2N2CCCCC2)cc1S(=O)(=O)O`, the “max activity % (lower = more inhibition)” value (at 50 µM) is “inactive”. Regarding `CC(=O)N1CCN(C(=O)C2(NC(=O)Nc3ccc(C)cc3)CCCCC2)CC1`, the “max activity % (lower = more inhibition)” value (at 0.1 µM) is “inactive”. Consider `CC(=O)N1CCN(C(=O)C2CCCN2C(=O)Nc2ccc(C)cc2)CC1` (stereo not given), for which the “max activity % (lower = more inhibition)” value (at 0.195 µM) was “inactive”.

On to `O=[N+]([O-])c1cccc(S(=O)(=O)Nc2cc(C(F)(F)F)ccc2N2CCCCC2)c1`, for which the “max activity % (lower = more inhibition)” value (at 0.195 µM) was “inactive”. Consider `COc1ccc(C(=O)Nc2cc(C(F)(F)F)ccc2N2CCOCC2)cc1S(=O)(=O)O`, for which the “max activity % (lower = more inhibition)” value (at 0.1 µM) is “inactive”. As for `CC(=O)N1CCN(C(=O)C2(NC(=O)Nc3ccccc3)CCCCC2)CC1`, the “max activity % (lower = more inhibition)” value (at 50 µM) was “inactive”.

On to `O=S(=O)(Nc1cc(C(F)(F)F)ccc1N1CCCCC1)c1ccc(-c2ccccc2)cc1`, for which the “max activity % (lower = more inhibition)” value (at 3 µM) is “inactive”. `CC(=O)N1CCN(C(=O)C2(NC(=O)Nc3cccc(F)c3)CCCCC2)CC1`: where the note is “at 0.195 µM”, the “max activity % (lower = more inhibition)” value was “inactive”.

For `O=C(Nc1cc(C(F)(F)F)ccc1N1CCCCC1)c1ccc(S(=O)(=O)O)cc1`, the “max activity % (lower = more inhibition)” value (at 50 µM) is “inactive”.
